From paper PMC4558462, “A new small molecule inhibitor of soluble guanylate cyclase” (Bioorganic & Medicinal Chemistry, 2015)
Entries after “also recorded” stand apart in the source; their conditions may differ. Like-named read-outs stand apart in the source and are kept apart here.

Assays:
[1] = target: T1, sGCcat (Homo sapiens, UniProt Q02108+Q02153); assay: SPR binding to catalytic domain of sGC; details: for sGCcat (SPR) binding norm. resp. (RU): Biacore T200, 25 °C; for binding to sGCcat (in words): discussion of Table 1
T1 construct: a smaller construct of the catalytic domain (sGCcat)
T1 sequence (Q02108 481-608 limits assumed): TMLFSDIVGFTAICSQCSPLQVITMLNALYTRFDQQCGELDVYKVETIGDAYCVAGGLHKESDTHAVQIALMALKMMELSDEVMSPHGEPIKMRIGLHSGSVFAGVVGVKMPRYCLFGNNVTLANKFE
T1 sequence (Q02153 421-554 limits assumed): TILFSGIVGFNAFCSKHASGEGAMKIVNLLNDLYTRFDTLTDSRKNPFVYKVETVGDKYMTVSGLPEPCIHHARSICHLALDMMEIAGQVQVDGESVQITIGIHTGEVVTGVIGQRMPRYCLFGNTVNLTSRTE
Description: We have previously described a surface plasmon resonance-based assay for the detection of binding of small molecules to full-length sGC and a smaller construct of the catalytic domain (sGCcat).[24] This assay was used to measure the binding of the compounds to sGCcat.[24] […] The position of the hydroxyl group can be changed whilst retaining binding strength and activity.
Surface plasmon resonance (SPR) experiments were performed with a Biacore T200 instrument at 25 °C. Data processing and analysis were performed using BIAevaluation software and Scrubber2. All sensorgrams were double referenced by subtracting the response in a reference flowcell and a blank sample. Materials and methods used were the same as previously published.[24]

[2] = target: T2, purified bovine lung sGC (Bos taurus, UniProt P16068+P19687); assay: Soluble guanylate cyclase activity assay (cGMP radioimmunoassay); assay type: biochemical; details: for inhibition of sGC enzyme activity (in words): discussion of Table 1
T2 construct: screened at 100 μM against purified bovine lung sGC; purchased Enzo lifesciences ALX-202-039-C005; host or cells: bovine lung
T2 sequence (P19687 1-691): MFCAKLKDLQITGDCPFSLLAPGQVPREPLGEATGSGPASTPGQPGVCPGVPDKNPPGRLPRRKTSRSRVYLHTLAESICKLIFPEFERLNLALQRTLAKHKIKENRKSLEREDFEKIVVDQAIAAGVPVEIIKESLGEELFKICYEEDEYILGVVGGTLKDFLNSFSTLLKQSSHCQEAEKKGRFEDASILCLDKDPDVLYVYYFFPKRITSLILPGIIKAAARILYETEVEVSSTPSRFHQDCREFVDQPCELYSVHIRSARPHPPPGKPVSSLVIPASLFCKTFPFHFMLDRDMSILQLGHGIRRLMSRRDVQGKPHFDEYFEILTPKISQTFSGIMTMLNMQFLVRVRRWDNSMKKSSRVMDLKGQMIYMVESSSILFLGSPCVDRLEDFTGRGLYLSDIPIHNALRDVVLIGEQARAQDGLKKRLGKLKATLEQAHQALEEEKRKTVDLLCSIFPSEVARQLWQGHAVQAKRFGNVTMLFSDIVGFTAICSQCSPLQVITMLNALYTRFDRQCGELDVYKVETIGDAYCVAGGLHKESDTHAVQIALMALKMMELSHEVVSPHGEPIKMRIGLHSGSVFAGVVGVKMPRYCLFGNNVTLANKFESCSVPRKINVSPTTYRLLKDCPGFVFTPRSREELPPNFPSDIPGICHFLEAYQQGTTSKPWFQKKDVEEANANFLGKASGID
T2 sequence (P16068 1-619): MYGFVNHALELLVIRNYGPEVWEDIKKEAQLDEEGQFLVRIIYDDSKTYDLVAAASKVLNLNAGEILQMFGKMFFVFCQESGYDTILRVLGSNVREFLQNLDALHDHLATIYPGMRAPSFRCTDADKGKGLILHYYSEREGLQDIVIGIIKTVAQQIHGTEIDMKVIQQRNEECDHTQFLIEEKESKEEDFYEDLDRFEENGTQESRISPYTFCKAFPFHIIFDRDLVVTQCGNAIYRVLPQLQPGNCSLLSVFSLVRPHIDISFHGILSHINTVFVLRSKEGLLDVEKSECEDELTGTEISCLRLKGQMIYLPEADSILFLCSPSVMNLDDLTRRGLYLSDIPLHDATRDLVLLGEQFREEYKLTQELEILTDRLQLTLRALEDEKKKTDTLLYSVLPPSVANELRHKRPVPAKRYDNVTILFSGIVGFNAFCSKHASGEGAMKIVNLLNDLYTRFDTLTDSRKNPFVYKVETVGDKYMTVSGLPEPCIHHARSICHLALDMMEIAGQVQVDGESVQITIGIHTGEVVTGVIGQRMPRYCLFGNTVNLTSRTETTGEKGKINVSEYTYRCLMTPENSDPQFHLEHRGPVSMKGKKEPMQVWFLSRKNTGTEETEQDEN
Description: Virtual screening was performed by similarity searches using MACCS fingerprints at 85% and 75% Tanimoto of commercial libraries and the selected compounds were screened at 100 μM against purified bovine lung sGC using diethylamine NONOate (30 nM) as the NO donor. Enzyme activity was determined by measuring cGMP production using a standard cGMP [^3H] radioimmunoassay.[21,22]
[…] Compounds were added at 100 μM prior to adding the NO donor DEA/NO (30 nM) or clamped NO concentrations. cGMP generation was allowed to proceed for two minutes, after which aliquots were withdrawn and inactivated by boiling in 50 mM Tris, 4 mM EDTA buffer. cGMP formation was measured by a standard radioimmunoassay.

[3] = virtual screening hits, 100 μM compound, diethylamine NONOate 30 nM as NO donor, read-out: % inhibition of sGC activity at 100 μM compound
[4] = read-out: % inhibition of sGC activity at 100 μM compound

Molecule | sGCcat (SPR) binding norm. resp. (RU) [1] [RU] | binding to sGCcat (in words) [1] | inhibition of sGC enzyme activity (in words) [2] | other results
6,7-Bis((3-hydroxyphenyl)amino)-N-methyl-2-naphthamide [Compound 28] | 9.6 ± 0.3 | higher binding |  | 
Clc1cccc(Nc2ncnc3ccccc23)c1Cl [Compound 5] |  |  |  | inhibition at 100 µM [2, 3]: 51%
N#Cc1cc(Nc2cccc(Cl)c2)c(Nc2cccc(Cl)c2)cc1C#N [Compound 6] |  |  |  | inhibition at 100 µM [2, 3]: 51%
Fc1cccc(Nc2nc3nonc3nc2Nc2cccc(F)c2)c1 [Compound 7] |  |  |  | inhibition at 100 µM [2, 3]: 90%
O=[N+]([O-])c1ccccc1Nc1nc2nonc2nc1Nc1ccccc1[N+](=O)[O-] [Compound 8] |  |  |  | inhibition at 100 µM [2, 4]: 90%
CC(=O)c1ccc(Nc2nc3cc([N+](=O)[O-])c([N+](=O)[O-])cc3nc2Nc2cccc(C(C)=O)c2)cc1 [Compound 9] |  |  |  | inhibition at 100 µM [2, 4]: 73%
O=[N+]([O-])c1ccc2nc(Nc3cccc(O)c3)c(Nc3cccc(O)c3)nc2c1 [Compound 14, 3,3′-((6-Nitroquinoxaline-2,3-diyl)bis(azanediyl))diphenol] | 11.6 ± 0.8 | higher binding |  | inhibition at 100 µM ([2]; synthesised analogues, 100 μM, read-out: sGC activity% inhibition at 100 μM): 41.4%
COc1ccc(Nc2nc3ccc([N+](=O)[O-])cc3nc2Nc2ccc(OC)cc2)cc1 [Compound 15, N2,N3-Bis(4-methoxyphenyl)-6-nitroquinoxaline-2,3-diamine] | 1.0 ± 0.3 | reduced its binding strength | biochemically inactive | 
O=[N+]([O-])c1ccc2nc(Nc3ccccc3)c(Nc3ccccc3)nc2c1 [Compound 16, 6-Nitro-N2,N3-diphenylquinoxaline-2,3-diamine] | 2.6 ± 0.2 |  |  | 
CC(=O)Nc1ccc(Nc2nc3ccc([N+](=O)[O-])cc3nc2Nc2ccc(NC(C)=O)cc2)cc1 [Compound 17, N,N′-(((6-Nitroquinoxaline-2,3-diyl)bis(azanediyl))bis(4,1-phenylene))diacetamide] | 0.8 ± 0.3 | reduced its binding strength | biochemically inactive | 
CC(=O)Nc1cccc(Nc2nc3ccc([N+](=O)[O-])cc3nc2Nc2cccc(NC(C)=O)c2)c1 [Compound 18, N,N′-(((6-Nitroquinoxaline-2,3-diyl)bis(azanediyl))bis(3,1-phenylene))diacetamide] | 3.0 ± 1.0 | reduced its binding strength | biochemically inactive | 
O=[N+]([O-])c1ccc2nc(Nc3ccc(F)cc3)c(Nc3ccc(F)cc3)nc2c1 [Compound 19, N2,N3-Bis(4-fluorophenyl)-6-nitroquinoxaline-2,3-diamine] | 1.9 ± 1.8 | reduced its binding strength | biochemically inactive | 
Oc1ccc(Nc2nc3ccccc3nc2Nc2ccc(O)cc2)cc1 [Compound 20, 4,4′-(Quinoxaline-2,3-diylbis(azanediyl))diphenol] | 12.4 ± 0.1 | higher binding; also recorded: only a small decrease in binding | no significant inhibition | 
CNC(=O)c1ccc2nc(Nc3ccc(O)cc3)c(Nc3ccc(O)cc3)nc2c1 [Compound 27, 2,3-Bis((4-hydroxyphenyl)amino)-N-methylquinoxaline-6-carboxamide] | 1.1 ± 0.3 |  |  | 
